Tests used:
[1] = tested on: phosphorylated Akt in TA3/St cells; experiment: Akt phosphorylation, Western blotting; format: cell-based, mouse; conditions: 150 μg/ml controls, 1:50 antibody to CD44 (FIG. 6C)
Experimental: FIG. 6A is a bar graph showing inhibition of Akt phosphorylation by hyaluronan oligomers in TA3/St murine mammary carcinoma cells treated in suspension with 1-150 μg/ml hyaluronan oligomers (o-HA) or 150 μg/mlchondroitin sulfate (CS). Cell lysates were then analyzed by Western blotting for phosphorylated Akt and quantified by densitometry. Results in A and B are presented as means of three independent experiments and expressed as percent untreated±S.D.
FIG. 6C is a representation of a Western blot of phosphorylated Akt from TA3/St cells: 1. untreated; 2. 150 μg/ml chondroitin sulfate; 3. 150 μg/ml hyaluronan polymer (mol. wt. ˜80 kDa); 4. 150 μg/ml chitin oligomers; 5. 50 μg/ml hyaluronan oligomers; 6. 150 μg/ml hyaluronan oligomers; 7. 50 nM wortmannin; 8. 20 μM LY294002; 9. 1:50 dilution of antibody against CD44. Results are representative of three experiments. Similar results to those in FIG. 6C were obtained also with HCT116 cells.
Treatment of tumor cells and preparation of cell lysates for biochemical assays. TA3/St and HCT116 cells were grown for 72 hours in 14 cm culture dishes, then harvested by trypsinization, washed in PBS and suspended in DMEM containing 10% FBS. […]
(§1) Immunoblotting. […] Immunoreactive bands were detected by enhanced chemiluminescence and the sizes of proteins were estimated using prestained molecular weight standards. Immunoreactive bands were quantified by densitometry. […]

[2] = tested on: α-isoform of PI3 kinase in TA3/St cells; experiment: PI3 kinase α isoform assay (immunoprecipitated); format: cell-based, mouse; conditions: 150 μg/ml polysaccharide controls, 50 nM wortmannin
Experimental: (§3) PI3 kinase assay. For assay of total PI3 kinase, 250 ng of cell lysate protein were used per assay. Assays were performed in a 50 μl reaction mixture containing 0.001% Nonidet P-40, 159 μM ATP, 25 mM MgCl2, 5 mM EGTA, 150 μM ATP, 25 μCi of [γ-^32P] ATP, 125 mM MOPS, pH 7.0, and 0.2 mg/ml sonicated lipids containing phosphatidyl serine, phosphatidyl inositol and phosphatidyl inositol-4,5 bisphosphate in a 1:1:1 (v:v:v) ratio in sonication buffer (25 mM MOPS, pH 7.0, 1 mm EGTA) (Whitman, M. et al (1985) Nature 315, 239-242; Susa, M., et al. (1992) J Biol Chem 267, 22951-22956; Misra, S., et al. (1998) J Biol Chem 273, 26638-26644). The reactions were carried out at 37° C. for 20 min and stopped by addition of 100 μl of CH3OH/1M HCl (1:1). […] The organic layers were combined, dried under nitrogen, and analyzed by thin layer chromatography. ^32P-labeled phosphoinositides were resolved in water:acetic acid:n-propanol (34:1:65) and detected by autoradiography. ^32P incorporation into phosphatidylinositol 3,4,5-phosphate (PIP3) was quantified by liquid scintillation counting of thin layer chromatography spots scraped into and eluted in scintillation fluid.
(§4) For assay of specific PI3 kinase isoforms, whole cell lysates were incubated with antibody against the particular isoform plus protein A-Sepharose. PI3 kinase activity of the enzyme immobilized on beads was then measured as described above.

PTEN in TA3/St cells = experiment: PTEN expression, immunoblotting; format: cell-based, mouse; conditions: similar amounts (150 μg/ml) of controls
Experimental: FIG. 8A is a bar graph showing stimulation of expression of PTEN, a tumor suppressor, by HA-oligomers, in TA3/St murine mammary carcinoma cells. Cells were treated in suspension and then processed for immunoblotting of PTEN. The bars represent densitometric quantification of immunoblots after treatment with 10-150 μg/ml hyaluronan oligomers (o-HA) or 150 μg/ml chondroitin sulfate (CS). Results are presented as means of three independent experiments and expressed as percent untreated±S.D.
FIG. 8C is an immunoblot using TA3/St murine mammary carcinoma cells treated as in lanes: 1. untreated; 2. 150 μg/ml chondroitin sulfate; 3. 150 μg/ml chitin oligomers; 4. 150 μg/ml hyaluronan polymer (mol. wt. ˜80 kDa); 5. 50 μg/ml hyaluronan oligomers; 6. 150 μg/ml hyaluronan oligomers. Results are representative of three experiments. Similar results to FIG. 8C were obtained also with HCT116 cells.
PTEN levels in TA3/St mouse mammary carcinoma cells were measured by Western blotting; values were obtained by scanning the blots. HA oligomers (oligo) at 50-100 μg/ml caused ˜6-fold increase in PTEN levels compared to untreated control. […]
as §1

[3] = tested on: TA3/St murine mammary carcinoma cells; experiment: Apoptosis assay in suspension culture; format: cell-based, mouse; conditions: 24 hours in suspension; 150 μg/ml controls, 50 nM wortmannin
Experimental: FIG. 3 is a bar graph showing induction of apoptosis by hyaluronan oligomers under anchorage-independent conditions. TA3/St murine mammary carcinoma cells were grown in suspension in serum-free medium for 24 hours in the presence of 50 or 150 μg/ml hyaluronan oligomers (o-HA), 150 μg/ml of ˜80 kDa molecular weight hyaluronan polymer (HA-80), 150 μg/ml chitin oligomers, 150 μg/ml chondroitin sulfate (CS), or 50 nM wortmannin (WM), a specific inhibitor of mammalian PI3 kinase (phosphoinositide 3-kinase). Apoptotic cells were then analyzed and counted as described in the EXAMPLES section. Results represent the average of two experiments and are expressed as percentage of total cells±range.
Treatment of tumor cells and preparation of cell lysates for biochemical assays. TA3/St and HCT116 cells were grown for 72 hours in 14 cm culture dishes, then harvested by trypsinization, washed in PBS and suspended in DMEM containing 10% FBS. Two million cells from these cultures were added to each well of non-adherent, Ultra-low cluster plates and incubated in suspension at 37° C. for a further 72 hours. […]
Apoptosis assay. […] Viable cells (green) and apoptotic cells containing fragmented nuclei (red) were counted and the percentage of apoptotic cells was then calculated.

[4] = tested on: caspase-3 activity in HCT116 human colon carcinoma cells; experiment: Caspase-3 assay; format: cell-based; conditions: HCT116, 150 μg/ml
Experimental: (§2) Treatment of tumor cells and preparation of cell lysates for biochemical assays. TA3/St and HCT116 cells were grown for 72 hours in 14 cm culture dishes, then harvested by trypsinization, washed in PBS and suspended in DMEM containing 10% FBS. Two million cells from these cultures were added to each well of non-adherent, Ultra-low cluster plates and incubated in suspension at 37° C. for a further 72 hours. The cells from each well were then collected, washed in PBS, suspended in 5 ml DMEM medium containing 2% bovine serum albumin (Cohn Analog, Sigma), re-plated in the cluster plates, and incubated in suspension at 37° C. for 96 hours; similar results were obtained with pre-incubations of 24-96 hours for most measurements. The hyaluronan oligomers or other reagents were then added and the cells incubated for another 24 hours in suspension.
The cells treated as above were harvested by centrifugation at room temperature. The pellets were washed twice in PBS, then lysed in buffer containing 1% Nonidet P-40 and protease inhibitors. Cell lysis was achieved by vortexing for three cycles of 15 sec at high speed followed by cooling on ice. The lysate was centrifuged at 12,000×g for 15 min at 4° C. in an Eppendorf 5415R centrifuge. After measuring the protein content of the supernatant, it was flash-frozen in liquid nitrogen and stored at −80° C. until use in the assays below.
Caspase-3 assay. […]

[5] = tested on: α-isoform of PI3 kinase in HCT116 cells; experiment: PI3 kinase α isoform assay (immunoprecipitated); format: cell-based, human; conditions: same reagents as FIG. 5D
Experimental: as §3, §4

[6] = tested on: caspase-3 activity in TA3/St murine mammary carcinoma cells; experiment: Caspase-3 assay; format: cell-based, mouse; conditions: 150 μg/ml
Experimental: FIG. 4A is a bar graph showing stimulation of caspase-3 activity in TA3/St murine mammary carcinoma cells by hyaluronan oligomers. Cells were grown in suspension in serum-free medium for 24 hours in the presence of 10, 50 or 150 μg/ml hyaluronan oligomers (o-HA), 150 μg/ml chondroitin sulfate (CS), or 20 μM LY294002 (LY), a specific inhibitor of mammalian PI3 kinase, and then analyzed for caspase-3 activity. Results are presented as the mean of specific activity (absorbance at 405 nm/mg/90 min)±S.D. for three independent experiments.
as §2, with “suspension. […]” for “suspension.”

[7] = tested on: TA3/St murine mammary carcinoma cells; experiment: Proliferation in monolayer (anchorage-dependent) culture; format: cell-based, mouse; conditions: 100-150 μg/ml
[8] = tested on: MCF-7/Adr drug-resistant human mammary carcinoma cells; experiment: Drug resistance, viable cell number (Coulter Counter); format: cell-based; conditions: MCF-7/Adr; decoys introduced by adenovirus infection, or siRNA (FIG. 18)
Experimental: FIG. 15A is a line graph showing that MCF-7/Adr drug-resistant human mammary carcinoma cells grown in culture with hyaluronan oligomers are sensitized to doxorubicin. MCF-7/Adr cells were obtained from MCF-7 cells by being selected for drug resistance by exposure to doxorubicin. Cells were grown for 24 h in 24-well plates in RPMI 1640 medium containing Glutamex 1 plus 10% fetal bovine serum at 37° in 5% CO2. Various concentrations of doxorubicin (doxo) were then added and the cells incubated for another 72 h, followed by a further 24 h in the presence or absence of 100 μg/ml hyaluronan oligomers (o-HA). The oligomers were a mixed population of 3-8 repeating disaccharides in length. The cells were then harvested and the number of viable cells was determined in a Coulter Counter.
FIG. 18 is a set of line graphs showing a resulting cell number, on the ordinate, following drug treatment with doxorubicin, concentration (log) in nM on the abscissa, showing restoration of drug sensitivity (inhibition of drug resistance) by HA oligomers, soluble hyaluronan-binding decoys, and CD44 siRNA, using derivatives of MCF-7 cells as in FIG. 17 above.
Therefore, the effect of co-treatment with hyaluronan oligomers on drug resistance was examined in an established system, i.e. MCF-7/Adr human mammary carcinoma cells that have been selected for resistance to doxorubicin (Fairchild, C. R., et al., Cancer Res 47, 5141-8, 1987). First, the effect of hyaluronan oligomers on resistance to doxorubicin in the MCF-7/Adr cells versus the relatively drug-sensitive, parental MCF-7 cell line was compared.

[9] = tested on: TA3/St murine mammary carcinoma cells; conditions: soft agar; TA3/St transfectant clones over-expressing the protein; cited from earlier work

chondroitin sulfate
effect on phosphorylation of Akt [1]: not caused | effect on PI3 kinase-α activity ([2]; 20 μM LY294002, 1:50 antibody to CD44): Neither hyaluronan polymer, nor chondroitin sulfate, nor chitin oligomers had a significant effect | effect on PI3 kinase-α activity ([2]; 20 μM LY294002, 1:50 antibody to CD44, listed as chondroitin sulfate (CS)): had no effect | effect on PTEN levels (PTEN in TA3/St cells): do not stimulate PTEN levels | effect on PTEN levels (PTEN in TA3/St cells; listed as Chondroitin sulfate (CS)): did not increase PTEN levels | effect on apoptosis [3]: do not have significant effects | effect on caspase-3 activity [4]: no significant effect | effect on PI3 kinase-α activity [5]: Neither hyaluronan polymer, nor chondroitin sulfate, nor chitin oligomers had a significant effect | effect on caspase-3 activity [6]: no significant effect

soluble CD44: hyaluronan-binding decoy, over-expressed in cells by transfection or adenovirus
effect on proliferation [7]: Neither HA oligomers nor soluble CD44 significantly affect proliferation | reversal of doxorubicin resistance [8]: reversed | inhibition of anchorage-independent growth [9]: effective inhibitor
